Experimental data as given in EP3553061A1, “NEW INHIBITORS OF BONE RESORPTION” (CENTRE NATIONAL DE LA RECHERCHE SCIENTIFIQUE (CNRS), priority 2018, dated 2019).
Values joined by “and” are separate entries in the source; they are usually repeats but may differ in a detail not shown here. Equal entries are not always repeated. Where two headings read alike, the source gives them in different places. Values belong to the compound of their own block, whether it stands above or below them.

Target: T1, human Dock5 (Homo sapiens, UniProt Q9H7D0)
T1 construct: plasmid expressing the catalytic DHR2 domain of mouse or human Dock5; expressed in transfected cells; host or cells: 293T cells
T1 sequence (Q9H7D0 1231-1642 limits assumed): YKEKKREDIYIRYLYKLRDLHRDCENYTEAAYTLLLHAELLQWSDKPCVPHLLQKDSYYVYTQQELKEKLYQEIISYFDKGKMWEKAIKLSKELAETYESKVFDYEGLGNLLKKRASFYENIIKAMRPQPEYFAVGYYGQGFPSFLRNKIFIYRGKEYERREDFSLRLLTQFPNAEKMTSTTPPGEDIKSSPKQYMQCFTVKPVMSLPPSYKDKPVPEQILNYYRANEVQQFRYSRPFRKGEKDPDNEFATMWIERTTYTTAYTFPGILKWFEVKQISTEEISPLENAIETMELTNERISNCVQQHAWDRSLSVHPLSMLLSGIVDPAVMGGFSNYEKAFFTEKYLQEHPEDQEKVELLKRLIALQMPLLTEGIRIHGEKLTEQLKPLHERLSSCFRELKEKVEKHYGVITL
Assay: Pull down assay of Rac activation by human Dock5 DHR2 in transfected 293T cells
Format: cell-based
Conditions: for inhibition at 100 µM: read-out: Inhibition; for IC50: 1 hour treatment
Method: Compounds E73, E88 and E78 were tested for their inhibiting effect of the activation of Rac by mouse Dock5 of and for certain human Dock5 according to a screening test using a pull down assay as represented in Figure 1.
Methodology (Figure 1): cells 293T seeded onto 100 mm diameter plates in a DMEM culture medium containing 10% serum in an incubator in 5.5% CO2 humidified atmosphere at 37°C. When they reach the density of 5x10^6 cells per plate, cells are transfected with 8 µg of plasmid expressing the catalytic DHR2 domain of mouse or human Dock5 in order to activate endogenous GTPase Rac. After 24 hours, the cells are lifted using trypsin and are seeded 10^6 per well in 6-well plates of 35 mms in diameter. The following day, the cells are put in contact during one hour with the compound, in a mother solution at 20 mM into 100% DMSO, to a test concentration of 100 µM into 0.5% DMSO in the DMEM medium containing 0.1% of BSA. The basal activation of Rac by Dock5 is measured from the cells treated with 0.5% DMSO. After treatment, the cells are observed under the optical microscope to make sure of the absence of any toxic effect of the compound. If cell suffering is detected, the test is invalidated and the compound is retested at a lower dosage. The cells are then lysed in 100 µl of the pull down buffer (10% glycerol, 50 mm Tris pH 7.4, 100 mM NaCl, 1% IGEPAL® CA-630 (SIGMA I3021), 2 mM MgCl2 supplemented with proteases inhibitors) and the lysate is incubated during one hour with 20 µg of sepharose beads coupled with the fusion protein GST-PAK-CRIB, which binds specifically the activated form of GTPase Rac, which is bound to GTP. After centrifugation and washings, the proteins associated with the beads, including active Rac GTPase, are denatured and loaded on an SDS PAGE gel. […] For each compound tested, the level of active Rac GTPase is quantified using the Image J software and is normalized to the concentration of total protein in the whole cell lysate. The efficiency of the molecule is defined by the level of active Rac after treatment compared to the level of active Rac in the cells treated with DMSO (control). An activity is considered as inhibitory if the level of Rac activation decreases by at least 10%, 20%, in particular at least 30%, 40%, and preferably at least 50% compared to the control treated with DMSO (Table 1).
The same approach was used to test the potency of molecules of the 48ED family, on the activity of human Dock5 DHR2 (Table 2). Table 2: Inhibitory activity of the compounds of the 48ED family on human Dock5 activity.

[1] = HEK-293T, Table 3, human Dock5, test concentration 100 µM, 1 hour, replicate values
[2] = Table 2, human Dock5 DHR2, test concentration 100 µM, 1 hour, replicate values, Negative = Rac activation does not decrease, 100 µM
[3] = Table 3, human Dock5, test concentration 100 µM, 1 hour, replicate values, 100 µM
[4] = HEK-293T, Table 3, human Dock5, at 50µM
[5] = Table 2, human Dock5 DHR2, test concentration 100 µM, 1 hour, replicate values, Negative = Rac activation does not decrease
[6] = HEK-293T, Table 2, human Dock5 DHR2, test concentration 100 µM, 1 hour, replicate values, Negative = Rac activation does not decrease

SMILES: O=S1(=O)N(c2ccccc2)C[C@H](O)[C@]12CCN(Cc1ccccc1)C2 [E118]
Inhibition [2]: 85% (2×) and 60% and 55%

SMILES: O=S1(=O)N(c2ccccc2)C[C@H](O)[C@]12CCN(CC1CCCCC1)C2 [E198]
Inhibition [3]: 95% and 10% and 85%

SMILES: CN1C[C@H](O)[C@]2(CCN(Cc3ccccc3)C2)S1(=O)=O [E120]
Inhibition [5]: Negative

SMILES: O=C(c1ccccc1)N1CC[C@@]2(C1)[C@@H](O)CN(c1ccccc1)S2(=O)=O [E137]
Inhibition [2]: 70% and 40% and 15%

SMILES: O=S1(=O)N(c2ccccc2)C[C@H](O)[C@]12CCN(Cc1ccccc1Cl)C2 (racemic) [E196, rac-(4S,5R)-7-(2-chlorobenzyl)-4-hydroxy-2-phenyl-1-thia-2,7-diazaspiro[4.4]nonane 1,1-dioxide]
inhibition at 50 µM [4]: 40%
Inhibition [3]: 95% (2×) and 35%
IC50 (human Dock5): 35 µM

SMILES: N#Cc1ccc(CN2CC[C@@]3(C2)[C@@H](O)CN(c2ccccc2)S3(=O)=O)cc1 [E129]
Inhibition [2]: 70% and 90% and 95%

SMILES: CN1C[C@@H](O)[C@]2(CCN(Cc3ccccc3)C2)S1(=O)=O [E121]
Inhibition [5]: Negative

SMILES: CO[C@@H]1CN(C)S(=O)(=O)[C@@]12CCN(Cc1ccccc1)C2 [E125]
Inhibition [5]: Negative

SMILES: CO[C@H]1CN(C)S(=O)(=O)[C@@]12CCN(Cc1ccccc1)C2 [E124]
Inhibition [5]: Negative

SMILES: O=S1(=O)N(c2ccccc2)C[C@H](O)[C@]12CCN(Cc1cccc(C(F)(F)F)c1)C2 [E128]
inhibition at 50 µM (HEK-293T, Table 2, human Dock5 DHR2, at 50µM): 70%
inhibition at 100 µM [6]: 90%

SMILES: O=S1(=O)N(c2ccccc2)C[C@H](O)[C@]12CCNC2 [E123]
inhibition at 100 µM [6]: 10%

SMILES: Cc1cc(C(=O)N2CC[C@@]3(C2)[C@@H](O)CN(c2ccccc2)S3(=O)=O)no1 [E136]
inhibition at 100 µM [6]: 30%

SMILES: O=S1(=O)N(c2ccccc2)C[C@@H](O)[C@]12CCN(Cc1ccccc1)C2 [E119]
inhibition at 100 µM [6]: 25%

SMILES: CS(=O)(=O)N1CC[C@@]2(C1)[C@@H](O)CN(c1ccccc1)S2(=O)=O [E138]
inhibition at 100 µM [6]: 30%

SMILES: CC(=O)N1CC[C@@]2(C1)[C@@H](O)CN(c1ccccc1)S2(=O)=O [E133]
inhibition at 100 µM [6]: 5%

SMILES: O=S1(=O)N(c2ccccc2)C[C@H](O)[C@]12CCN(Cc1ccc3ccccc3c1)C2 [E132]
inhibition at 10 µM (HEK-293T, Table 2, human Dock5 DHR2, at 10µM): 50%
inhibition at 100 µM [6]: 70%
Inhibition (Table 2, human Dock5 DHR2, at 10µM): 60%

SMILES: O=S1(=O)N(c2ccccc2)C[C@@H](O)[C@]12CCN(Cc1ccccc1F)C2 [E139]
Inhibition [2]: 60% and 10%

SMILES: CS(=O)(=O)c1ccc(CN2CC[C@@]3(C2)[C@@H](O)CN(c2ccccc2)S3(=O)=O)cc1 [E131]
Inhibition [2]: 50% and 70% and 90%

SMILES: O=C(CC1CCCC1)N1CC[C@@]2(C1)[C@@H](O)CN(c1ccccc1)S2(=O)=O [E135]
Inhibition [2]: 70% and 50% and 95%

SMILES: COC(=O)c1ccc(CN2CC[C@@]3(C2)[C@H](O)CN(c2ccccc2)S3(=O)=O)cc1 [E140]
inhibition at 100 µM [6]: 50%

SMILES: O=S1(=O)N(c2ccccc2)C[C@H](O)[C@]12CCN(Cc1ccc(F)cc1)C2 [E127]
Inhibition [2]: 40% and 50% and 85% and 90%

Results, then the compound that gave them:

inhibition at 100 µM [1]: 35%
SMILES: COc1cc(CN2CC[C@@]3(C2)[C@@H](O)CN(c2ccccc2)S3(=O)=O)cc(OC)c1 [E209]

inhibition at 100 µM [1]: 98%
Inhibition [3]: 100%
SMILES: O=S1(=O)N(c2ccccc2)C[C@H](O)[C@]12CCN(Cc1ccc3[nH]ccc3c1)C2 [E212]

inhibition at 50 µM [4]: 95%
Inhibition (Table 3, human Dock5, at 50µM): 90%
IC50 (human Dock5): 22 µM
SMILES: O=S1(=O)N(c2ccccc2)C[C@H](O)[C@]12CCN(Cc1cnc3ccccc3c1)C2 (racemic) [E203, rac-(4S,5R)-4-hydroxy-2-phenyl-7-(quinolin-3-ylmethyl)-1-thia-2,7-diazaspiro[4.4]nonane 1,1-dioxide]

inhibition at 50 µM [4]: 85%
IC50 (human Dock5): 32 µM
SMILES: O=S1(=O)N(c2ccccc2)C[C@H](O)[C@]12CCN(Cc1ccc3c(c1)CCC3)C2 (racemic) [E210, rac-(4S,5R)-7-((2,3-dihydro-1H-inden-5-yl)methyl)-4-hydroxy-2-phenyl-1-thia-2,7-diazaspiro[4.4]nonane 1,1-dioxide]

Inhibition [3]: 85% and 55% and 40% and 60%
SMILES: O=S1(=O)N(C2CCCCC2)C[C@@H](O)[C@]12CCN(Cc1ccccc1)C2 [E234]

Inhibition [3]: 60% and 10% (2×)
SMILES: Cn1cc(CN2CC[C@@]3(C2)[C@@H](O)CN(c2ccccc2)S3(=O)=O)cn1 [E201]

Inhibition [3]: 90% and 50%
SMILES: N#Cc1cccc(CN2CC[C@@]3(C2)[C@@H](O)CN(c2ccccc2)S3(=O)=O)c1 [E214]

Inhibition [3]: 40% (2×) and 10%
SMILES: O=C(O)CO[C@H]1CN(c2ccccc2)S(=O)(=O)[C@@]12CCN(Cc1ccccc1)C2 [E232]

Inhibition [3]: 50% and 100% and 70%
SMILES: O=S1(=O)N(c2ccccc2)C[C@H](O)[C@]12CCN(Cc1ccc3c(c1)OCO3)C2 [E206]

inhibition at 50 µM [4]: 70%
inhibition at 100 µM [1]: 100%
IC50 (human Dock5): 43 µM
SMILES: O=S1(=O)N(c2ccccc2)C[C@H](O)[C@]12CCN(Cc1cc3ccccc3o1)C2 (racemic) [E205, rac-(4S,5R)-7-(benzofuran-2-ylmethyl)-4-hydroxy-2-phenyl-1-thia-2,7-diazaspiro[4.4]nonane 1,1-dioxide]

inhibition at 50 µM [4]: 20%
inhibition at 100 µM [1]: 70%
SMILES: O=S1(=O)N(c2cccc(Cl)c2)C[C@@H](O)[C@]12CCN(Cc1ccccc1)C2 [E236]

Inhibition [3]: 90% and 50% and 60%
SMILES: COc1ccc(N2CCC3(CCN(Cc4cccc(Cl)c4)C3)C2=O)cc1OC (stereo not drawn) [E227]

inhibition at 100 µM [1]: 35%
SMILES: O=S1(=O)N(c2ccccc2)C[C@H](O)[C@]12CCN(Cc1cccs1)C2 [E208]

inhibition at 100 µM [1]: 80%
Inhibition [3]: 85%
SMILES: O=S1(=O)N(c2cccc(Cl)c2)C[C@H](O)[C@]12CCN(Cc1ccccc1)C2 [E235]

inhibition at 50 µM [4]: 60%
inhibition at 100 µM [1]: 100%
Inhibition [3]: 95%
IC50 (human Dock5): 33 µM
SMILES: Cn1cc(CN2CC[C@@]3(C2)[C@@H](O)CN(c2ccccc2)S3(=O)=O)c2ccccc21 (racemic) [E204, rac-(4S,5R)-4-hydroxy-7-((1-methyl-1H-indol-3-yl)methyl)-2-phenyl-1-thia-2,7-diazaspiro[4.4]nonane 1,1-dioxide]

inhibition at 50 µM [4]: 55%
IC50 (human Dock5): 20 µM
SMILES: O=C1N(c2cccc(F)c2)CCC12CCN(Cc1cccc(Cl)c1)C2 (stereo not drawn) [E226, 7-(3-chlorobenzyl)-2-(3-fluorophenyl)-2,7-diazaspiro[4.4]nonan-1-one]

inhibition at 100 µM [1]: 35%
SMILES: CO[C@H]1CN(Cc2ccccc2)S(=O)(=O)[C@@]12CCN(Cc1ccccc1)C2 [E225]

inhibition at 50 µM [4]: 90%
IC50 (human Dock5): 44 µM
SMILES: COc1ccc(CN2CC[C@@]3(C2)[C@@H](O)CN(c2ccccc2)S3(=O)=O)cc1F (racemic) [E211, rac-(4S,5R)-7-(3-fluoro-4-methoxybenzyl)-4-hydroxy-2-phenyl-1-thia-2,7-diazaspiro[4.4]nonane 1,1-dioxide]

inhibition at 50 µM [4]: 65%
IC50 (human Dock5): 8 µM
SMILES: COc1ccc(N2CCC3(CCN(Cc4cccc(Cl)c4)C3)C2=O)cc1C (stereo not drawn) [E228, 7-(3-chlorobenzyl)-2-(4-methoxy-3-methylphenyl)-2,7-diazaspiro[4.4]nonan-1-one]

inhibition at 100 µM [1]: 90%
Inhibition (Table 3, human Dock5, test concentration 100 µM, 1 hour, replicate values): 90%/ 90%
SMILES: CN(C)c1ccc(CN2CC[C@@]3(C2)[C@@H](O)CN(c2ccccc2)S3(=O)=O)cc1 [E213]

inhibition at 100 µM [6]: 25%
SMILES: O=S1(=O)N(c2ccccc2)C[C@H](O)[C@]12CCN(CCc1ccccc1)C2 [E217]

inhibition at 50 µM [4]: 65%
SMILES: O=S1(=O)N(c2ccccc2)C[C@H](OCCO)[C@]12CCN(Cc1ccccc1)C2 [E229]

inhibition at 50 µM [4]: 70%
SMILES: CCOC(=O)CO[C@H]1CN(c2ccccc2)S(=O)(=O)[C@@]12CCN(Cc1ccccc1)C2 [E231]

Inhibition [3]: 80% and 45% and 30% and 70%
SMILES: CNC(=O)CO[C@H]1CN(c2ccccc2)S(=O)(=O)[C@@]12CCN(Cc1ccccc1)C2 [E230]

inhibition at 100 µM [1]: 20%
SMILES: O=S1(=O)N(Cc2ccccc2)C[C@H](Oc2ccccn2)[C@]12CCN(Cc1ccccc1)C2 [E224]
